The target of the assay is T1, human recombinant expressed FAAH (Homo sapiens, UniProt O00519).
T1 construct: expressed in transfected cells; host or cells: COS-7 cells, transient, pcDNA3; dounce-homogenised cell extract
T1 sequence (O00519 1-579): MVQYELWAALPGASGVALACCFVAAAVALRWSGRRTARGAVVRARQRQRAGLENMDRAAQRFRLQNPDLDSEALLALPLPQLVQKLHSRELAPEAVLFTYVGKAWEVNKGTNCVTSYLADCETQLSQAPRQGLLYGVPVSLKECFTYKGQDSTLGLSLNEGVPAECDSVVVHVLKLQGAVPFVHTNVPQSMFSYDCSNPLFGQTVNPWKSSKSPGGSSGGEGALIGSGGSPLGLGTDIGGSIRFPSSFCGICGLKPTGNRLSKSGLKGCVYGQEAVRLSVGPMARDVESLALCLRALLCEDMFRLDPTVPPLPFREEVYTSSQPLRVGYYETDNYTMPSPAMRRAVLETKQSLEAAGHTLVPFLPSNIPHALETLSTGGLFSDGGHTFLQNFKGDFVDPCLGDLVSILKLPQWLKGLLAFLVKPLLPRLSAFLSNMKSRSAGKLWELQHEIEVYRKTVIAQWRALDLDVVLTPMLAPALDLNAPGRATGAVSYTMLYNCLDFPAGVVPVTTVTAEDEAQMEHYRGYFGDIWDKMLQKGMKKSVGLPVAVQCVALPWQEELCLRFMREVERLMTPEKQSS
The experiment in a line: oleamide hydrolysis by COS-7 cells transfected with human oleamide hydrolase (TLC). It counts as biochemical. The following applies: versus control COS-7 cells. As to the method:
For preparing the rat, mouse and human FAAH recombinant protein, the corresponding FAAH cDNAs were excised from the Bluescript II vectors and separately ligated into the eukaryotic expression vector, pcDNA3 (Invitrogen, San Diego, Calif.). 100 mm dishes of COS-7 cells were grown at 37° C. to 70% confluency in complete medium (DMEM with L-glutamine, non-essential amino acids, sodium pyruvate and fetal bovine serum). The COS-7 cells were then washed with serum-free medium and treated with 5 ml of transfection solution (5-6 μg of FAAH-pcDNA3 vector were preincubated with transfectamine (Gibco-BRL) for 30 minutes in 1 ml of serum free medium, then diluted to a final volume of 5 ml with serum free medium). The COS-7 cells were incubated at 37° C. for 5 hours, at which point 10 ml of complete medium was added to the cells and incubation was continued at 37° C. for 12 hours. The transfection solution was then aspirated away from the COS-7 cells, and the cells were incubated in a fresh batch of complete medium for another 24 hours. […]
While untransfected COS-7 cells contained negligible amounts of oleamide hydrolase activity, COS-7 cells transfected with the rat FAAH cDNA expressed high levels of oleamide hydrolase activity (FIG. 15A). The assay was performed as described in Section B where by TLC the conversion of oleamide to oleic acid was assessed.

On to `CCCCCCCC/C=C\CCCCCCCC(N)=O` [cis-9,10-octadecenoamide, Cis-9,10-octadecenoamide], for which the “conversion of oleamide to oleic acid by human FAAH-transfected COS-7 cells (qualitative, TLC)” value is on record as “conversion to oleic acid is seen only in lane 2”.

The values are drawn from patent publication US6699682B2, “Assay for inhibitors of fatty-acid amide hydrolase” (The Scripps Research Institute, priority 1995, dated 2004).
